As usually defined, the Ki is the equilibrium dissociation constant of an inhibitor or competing ligand from its target.

In one assay the target is Sigma-1 Receptor (S1R) (Homo sapiens (Human), UniProt Q99720). As to the kind of experiment: In-vitro binding assay, Sigma-1 receptor. The conditions noted are these: for S1R fold selectivity (S2R/S1R): ratio S2R Ki/S1R Ki. The method, then: (§1) In-vitro binding assays performed at Eurofins Panlabs Taiwan, Ltd. Specific ligand binding was determined in the presence of an excess of unlabelled ligand.
Chain of Sigma-1 Receptor (S1R) (Q99720 whole entry, species assumed): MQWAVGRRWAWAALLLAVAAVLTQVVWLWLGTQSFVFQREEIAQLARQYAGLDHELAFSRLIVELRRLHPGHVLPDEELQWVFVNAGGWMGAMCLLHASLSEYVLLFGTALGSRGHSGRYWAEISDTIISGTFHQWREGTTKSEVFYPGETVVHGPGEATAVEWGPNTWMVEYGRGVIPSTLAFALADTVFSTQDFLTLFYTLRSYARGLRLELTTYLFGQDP

The test system of a further assay is B104 neuroblastoma cells. As to the kind of experiment: BDNF release from B104 cells, in-situ ELISA. Format: cell-based, rat. The following applies: 5 days, vs untreated control. Background: An ELISA detects its analyte on a solid surface through an enzyme-linked reagent.
Another assay has as its system HD patients. The following applies: 45 mg bid. The source says: PBA-S includes behavioral assessments of depressed mood, anxiety, apathy and irritability.
The lack of initiative subscale of the PBA-S is a measure of apathy in HD patients. Apathy is a symptom common to HD and depression.
The Problem Behaviors Assessment-Short (PBA-s) scale, is a measure of psychiatric symptoms including anxiety, depression and apathy. The PBA-s is an interview designed specifically for rating the severity and frequency of behavioral abnormalities in HD. PBA-S includes behavioral assessments of depressed mood, anxiety, apathy and irritability. This scale is widely used in HD clinical trials and recommended as a measure of screening behavioral symptoms, including depression and anxiety. […] The lack of initiative subscale of the PBA-S is a measure of apathy in HD patients. Apathy is a symptom common to HD and depression.

Assay [1] has as its system YAC128 HD mice. The conditions noted are these: early treatment from 1.5 months, 30 mg/kg. The method, then:
(§2) Animals. […] Mice were bred at the Biological Resource Centre (Agency for Science, Technology and Research, ASTAR), and group-housed with littermates of mixed genotype. Animals were maintained under a 12-h light cycle (lights on at 09:00) in a clean facility, and given free access to food and water. Experiments were performed with the approval of the Institutional Animal Care and Use Committee at the Biomedical Sciences Institute (ASTAR) and in accordance with their approved guidelines.
(§3) Animals were weighed every two weeks to ensure the correct dose was maintained.
(§4) Mice were divided into three groups. […] One cohort was behaviorally tested every two months commencing at 2 months of age. Mice were tested for psychiatric function (open field, elevated plus maze, and forced swim test). Tests were conducted at a set time during the day, prior to drug administration.
Anxiety-like behavioral tests. The open-field (OF) and elevated plus maze (EPM) tests are used to assess anxiety-like behavioral in rodents. The time spent in the center of the arena in the OF and the time spent in the open arms of the maze in the EPM are considered measures of anxiety-like behavior.

For assay [2], the system named is patient diagnosed with anxiety or depression. The conditions noted are these: periodic administration, intravenous or oral, paper example.
The subject of the next assay is Sprague-Dawley male rats. The conditions noted are these: FST day 8. From the text:
On day 8, rats were again placed in a water tank, and time spent immobile measured.
Sprague-Dawley male rats, 6 weeks old were used. Rats were pre-tested on day 1 to ensure stable and high duration of immobility during the 5-min test session.

For the next assay, the system named is Male NMRI mice. The following applies: 30 min before test. From the text: Animals were assigned according to the experimental plan to one of the 4 test boxes run simultaneously.
The number of marbles covered by sawdust were counted. The experimenter also observed the animals for obvious inhibition of general activity (locomotor activity).

Another assay addresses D2Rs (Homo sapiens (Human), UniProt P14416). The following applies: cited from earlier work.
The target of the next assay is Sigma-2 receptor (S2R) (Homo sapiens (Human), UniProt Q5BJF2). Put plainly: In-vitro binding assay, Sigma-2 receptor. The conditions noted are these: Cheng Prusoff equation. The method, then: as §1
Chain of Sigma-2 receptor (S2R) (Q5BJF2 whole entry, species assumed): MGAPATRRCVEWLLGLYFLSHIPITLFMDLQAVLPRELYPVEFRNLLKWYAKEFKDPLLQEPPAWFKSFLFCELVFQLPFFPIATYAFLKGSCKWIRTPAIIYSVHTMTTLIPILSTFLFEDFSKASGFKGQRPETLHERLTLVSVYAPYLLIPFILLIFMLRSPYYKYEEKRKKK
Another assay has as its system Male Sprague-Dawley rats. The following applies: 30 mg/kg p.o., 30 min and 120 min after administration.
The target in the next assay is D3Rs (Homo sapiens (Human), UniProt P35462). The conditions noted are these: cited from earlier work.
Chain of D3Rs (P35462 whole entry): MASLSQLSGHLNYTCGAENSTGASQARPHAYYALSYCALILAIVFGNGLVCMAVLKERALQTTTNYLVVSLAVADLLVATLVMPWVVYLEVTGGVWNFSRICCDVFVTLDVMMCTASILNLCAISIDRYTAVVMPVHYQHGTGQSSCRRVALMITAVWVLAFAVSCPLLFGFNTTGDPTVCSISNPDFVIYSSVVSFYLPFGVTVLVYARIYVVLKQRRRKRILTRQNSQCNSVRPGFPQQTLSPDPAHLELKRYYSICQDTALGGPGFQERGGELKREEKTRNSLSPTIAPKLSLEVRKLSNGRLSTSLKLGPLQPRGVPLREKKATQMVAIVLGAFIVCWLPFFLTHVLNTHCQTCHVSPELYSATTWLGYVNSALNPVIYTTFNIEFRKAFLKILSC
Assay [3] concerns rodents exhibiting symptoms of anxiety. The conditions noted are these: periodic administration, paper example.
The test system of assay [4] is YAC128 HD mice. The method, then: as §2, §3, §4

Values joined by “and” are separate entries in the source; they are usually repeats but may differ in a detail not shown here. Equal values may be shown once. Read-outs that look alike come from different tables or passages of the source.

Chain of D2Rs (P14416 whole entry): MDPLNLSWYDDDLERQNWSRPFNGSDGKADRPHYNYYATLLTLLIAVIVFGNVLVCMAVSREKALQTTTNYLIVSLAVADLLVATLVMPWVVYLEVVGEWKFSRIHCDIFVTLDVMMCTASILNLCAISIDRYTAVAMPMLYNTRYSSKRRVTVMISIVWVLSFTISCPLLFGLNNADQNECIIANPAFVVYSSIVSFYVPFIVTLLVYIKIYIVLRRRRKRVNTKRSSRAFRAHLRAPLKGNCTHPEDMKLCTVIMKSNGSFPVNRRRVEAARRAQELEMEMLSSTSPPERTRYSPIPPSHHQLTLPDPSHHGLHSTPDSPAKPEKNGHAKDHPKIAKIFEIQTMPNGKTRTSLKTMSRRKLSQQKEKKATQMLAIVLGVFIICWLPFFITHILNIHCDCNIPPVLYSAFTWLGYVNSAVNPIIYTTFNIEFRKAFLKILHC
Experimental for Male Sprague-Dawley rats: Male Sprague-Dawley rats (270-400 g bodyweight) were housed in groups of two in a temperature (20±2° C.) and humidity (50-60%) controlled colony room under a non-reversed 12 (6-18 on)/12 h light-dark cycle with food and water ad libitum except during the actual experiments. 4 rats were used for each drug dose and the vehicle-treated control group.
USV was recorded by a microphone and processed by an interface to select USV signals and to digitize the resulting signals for automatic processing. In the priming phase, each rat was placed in the test chamber. After a 2 min time period, a series of at most ten shocks (trials), 1.8 mA for 0.3 s, separated by 20 s shock-free intervals, was delivered via the grid floor of the test chamber. In the shock-free intervals the occurrence of ultrasonic vocalization (22±5 kHz) was automatically recorded, and the duration of ultrasonic vocalization was calculated immediately. The priming session was terminated either when the rat constantly vocalized at least for 10 s on three consecutive trials or after the tenth trial. Rats not responding with USV on three consecutive trials were excluded from the test. In the actual test performed on the next day, each rat received 5 initial shocks (1.8 mA for 0.3 s, separated by 20 s shock-free intervals) in the test chamber, and the duration of USV (22+4 kHz) was recorded during the following 3 min period.

Regarding `CCCN1CCC(O)(c2cccc(S(C)(=O)=O)c2)CC1` [Compound 1], the “S1R fold selectivity (S2R/S1R)” value on Sigma-1 Receptor (S1R) is on record as above 270 fold. In the assay with B104 neuroblastoma cells (Compound 1 1 μM alone), the “increase in BDNF secretion” value is 12.5%.
Consider `CCCN1CC[C@@H](c2cccc(S(C)(=O)=O)c2)[C@@H](O)C1` [Compound 4], for which, on Sigma-1 Receptor (S1R), the “S1R fold selectivity (S2R/S1R)” value was above 35 fold. In addition, the “change in BDNF secretion” value with B104 neuroblastoma cells (Compound 4 0.001 μM alone) is on record as −1.5%.
Take `CCCN1CCC(c2cccc(S(C)(=O)=O)c2)CC1` [Pridopidine, 4-[3-(methylsulfonyl)phenyl]-1-propyl-piperidine]: the “PBA-S change from baseline vs placebo” value in the assay on HD patients (week 52, p=0.0603) was −2.13 units. Further, in the assay with HD patients (week 52, p=0.0704), the “PBA-S lack of initiative measure, change from baseline vs placebo” value is on record as −1.27 units. The inhibition constant Ki on Sigma-1 Receptor (S1R) (Cheng Prusoff equation) came out at 57 nM; at Sigma-2 receptor (S2R), 5450 nM. Moreover, the “time spent in the center of the arena (open field)” value with YAC128 HD mice [1] (tested at 6 months) is listed as “increased the time spent in the center of the arena”. The “time spent in the open arms (elevated plus maze)” value in the assay on YAC128 HD mice [1] (tested at 8 months) was “decreased anxiety-like behavior”. The “increase in BDNF secretion” value was 13.6% and 13.5% in the assay with B104 neuroblastoma cells (pridopidine 0.001 μM alone); 26% with B104 neuroblastoma cells (pridopidine 0.005 μM alone); 3.4% in the assay with B104 neuroblastoma cells (pridopidine 0.01 μM alone). Besides, in [2], the “efficacy in treating patient with anxiety or depression” value is recorded as “effective in treating the patient”. In addition, the “decrease in immobility time” value in the assay on Sprague-Dawley male rats (3 mg/kg oral gavage daily for 7 days) was 38%; with Sprague-Dawley male rats (15 mg/kg oral gavage daily for 7 days) it was 58%. Moreover, the inhibition of marble-burying is on record as 8% with Male NMRI mice (1 mg/kg p.o.), 49% in the assay on Male NMRI mice (3 mg/kg p.o.), 62% in the assay on Male NMRI mice (10 mg/kg p.o.) and 73% in the assay with Male NMRI mice (30 mg/kg p.o.). The “higher affinity towards the S1R vs D2Rs” value on D2Rs is listed as around 500 fold. Besides, the “effect on USV duration” value in the assay with Male Sprague-Dawley rats is reported as “significantly inhibited USV”. Further, at D3Rs, the “higher affinity towards the S1R vs D3Rs” value is given as around 30 fold. For the same compound, in [3], the “efficacy in treating anxiety” value is given as “effective in treating anxiety”. The “time spent immobile in forced swim test” value in the assay with YAC128 HD mice [4] (early treatment from 1.5 months, 30 mg/kg, 12 months of age) is recorded as “reduced the time spent immobile”. For the same compound, the “depressive-like behavior, immobility time in forced swim test” value in the assay on YAC128 HD mice [4] (late (manifest) treatment from 8 months, escalating to 30 mg/kg oral gavage) is “significantly improves depressive-like phenotype”.

(Values after patent US20230390272A1 (PRILENIA NEUROTHERAPEUTICS LTD., priority 2020, published 2023).)
